# In paper PMC9865601 (2023):
# Legend:
# [1] = test system: c-myc (DNA, i motif) TCCCCACCTTCCCCACCCTCCCCACCCTCCCCA; test: CD melting, heating ramp, 285 nm; settings: 100 mM KCl; 10 mM LiAsO2Me2, pH 5.5; 2.5 µM oligo, 20 µM IMC-48
# [2] = test system: DAP-Mut (DNA, single strand) CTACCGCTAACGCCTTCGCTCTCGCTTTC; test: bio-layer interferometry; settings: 50 mM KCl; 50 mM Tris-HCl, 2% DMSO, 0.05% P20; tested up to 100 µM
# [3] = test system: c-myc (DNA, i motif) TCCCCACCTTCCCCACCCTCCCCACCCTCCCCA; test: bio-layer interferometry; settings: 50 mM KCl; 50 mM Tris-HCl, 2% DMSO, 0.05% P20; pH 5.5 (also pH 7.5); tested to 100 µM
# [4] = test system: Htelo-C (DNA, i motif) TAACCCTAACCCTAACCCTAACCCTAA; test: bio-layer interferometry; settings: 50 mM KCl; 50 mM Tris-HCl, 2% DMSO, 0.05% P20; pH 5.5 (also pH 7.5); tested to 100 µM
# [5] = test system: HRAS (DNA, i motif) CGCCCGTGCCCTGCGCCCGCAACCCGA; test: CD melting, heating ramp, 285 nm; settings: 100 mM KCl; 10 mM LiAsO2Me2, pH 5.5; 2.5 µM oligo, 20 µM IMC-48
# [6] = test system: bcl-2 (DNA, i motif) CAGCCCCGCTCCCGCCCCCTTCCTCCCGCGCCCGCCCCT; test: CD melting, heating ramp, 285 nm; settings: 100 mM KCl; 10 mM LiAsO2Me2, pH 5.5; 2.5 µM oligo, 20 µM IMC-48
# [7] = test system: ssDNA (DNA, single strand) GGCATAGTGCGTGGGCG; test: bio-layer interferometry; settings: 50 mM KCl; 50 mM Tris-HCl, 2% DMSO, 0.05% P20; tested up to 100 µM
# [8] = test system: HP-GC (DNA, hairpin) CGCGCGCGTTTTCGCGCGCG; test: bio-layer interferometry; settings: 50 mM KCl; 50 mM Tris-HCl, 2% DMSO, 0.05% P20; tested up to 100 µM
# [9] = test system: HTelo-C (DNA, i motif) TAACCCTAACCCTAACCCTAACCCTAA; test: CD melting, heating ramp, 285 nm; settings: 100 mM KCl; 10 mM LiAsO2Me2, pH 5.5; 2.5 µM oligo, 20 µM IMC-48
compound,measurement,setting,value
CC(C)CCC[C@@H](C)[C@H]1CC[C@H]2[C@@H]3CC[C@H]4C[C@H](NC(=O)C[N+]5(C)CCCCC5)CC[C@]4(C)[C@H]3CC[C@]12C,∆Tm,[1],−0.5 ± 0.1 °C
same,binding,[2],no
same,binding,[3],no
same,binding,[4],no
same,∆Tm,[5],−1.2 ± 1.1 °C
same,∆Tm,[6],0.2 ± 0.4 °C
same,binding,[7],no
same,binding,[8],no
same,∆Tm,[9],−1.2 ± 0.5 °C
